From patent US20140163048A1, “COMPOSITIONS WITH INCREASED STABILITY FOR INHIBITING TRANSIENT RECEPTOR POTENTIAL ION CHANNEL TRPA1” (Cubist Pharmaceuticals, Inc., priority 2012, published 2014)
Entries after “also recorded” stand apart in the source; their conditions may differ.

Columns and labels:
[1] = 7-day i.p. repeat dose screening toxicity study; format: in vivo, rats; conditions: 50 mg/kg/day i.p. for 7 consecutive days
Protocol: The compound of Formula (I) was evaluated in a 7-day repeat dose screening toxicity study in female rats. In order to maximize systemic exposure, rats were administered compound of Formula (I) i.p. at 50 mg/kg/day for 7 consecutive days, to obtain the results shown in FIG. 9. Clinical chemistry parameters were evaluated on Days 3 and 8. Histopathology was performed on select organs including the liver, kidney, spleen, and lung.

[2] = tested on: TRP channels and voltage-gated ion channels; test: Selectivity over the panel of eight tested channels; format: cell-based, human; conditions: eight channels of Table 2
Protocol: Data for TRPA1 inhibition and the selectivity of TRPA1 inhibition was obtained by this method for the compound of Formula (I) and included in Table 1 and Table 2. All currents were recorded in whole-cell configuration using EPC-9 and EPC-10 amplifiers and Patchmaster software (HEKA). […] The standard pipette solution consisted of 140 mM CsAsp, 10 mM EGTA, 10 mM HEPES, 2.27 mM MgCl2, 1.91 mM CaCl2, 4 mM MgATP, and 0.1-0.3 mM Na2GTP, with pH adjusted to 7.2 with CsOH. In addition, a solution containing 145 mM CsCl, 10 mM HEPES, 10 mM EGTA and 1 mM MgCl2 (pH 7.2 adjusted with csOH) can be used. The standard bath solution contained 150 mM NaCl, 10 mM HEPES, 10 mM glucose, 4.5 mM KCl, 1 mM EGTA, 3 mM MgCl2, with pH adjusted to 7.4 with NaOH. In some instances, 2 mM CaCl2 was added in place of EGTA and the concentration of MgCl2 was reduced to 1 mM.

[3] = tested on: serum chemistry biomarkers of hepatotoxicity; test: Hepatotoxicity serum biomarker study, oral dose; format: in vivo, dogs; conditions: for serum biomarkers of hepatotoxicity (ALT, AST, ALP, GGT): dogs, 50 mg/kg PO; for ALT levels elevation: single PO dose of 50 mg/kg
Source text: […] 11A, showing measurements of alanine aminotranferease [ALT], aspartate aminotranferease [AST], alkaline phosphatase [ALP] and gamma-glutamyl transferase [GGT] in the dogs at each dose level (each bar represents a measurement from 1 dog in the study).

SMILES | histopathology of liver, kidney, spleen, lung ([1]; female rats, days 3 and 8, 50 mg/kg/day) | selectivity for block of TRPA1 over all other tested channels [2] | serum biomarkers of hepatotoxicity (ALT, AST, ALP, GGT) [3] | serum biomarkers of hepatotoxicity ([1]; rats) | ALT levels elevation ([3]; female beagle dogs) | ALT levels elevation ([3]; male dogs)
C[C@H]1CCCN1c1ncc(-c2cccc(NC(=O)Cn3cnc4c3c(=O)n(C)c(=O)n4C)n2)cn1 [Formula (I)] | No histopathological findings; also recorded: no adverse effects | at least 100 fold | did not elevate serum biomarkers of hepatotoxicity or acute phase response | – | – | –
C[C@H]1CCCN1c1ccc(-c2csc(NC(=O)Cn3cnc4c3c(=O)n(C)c(=O)n4C)n2)cc1F [Formula (III)] | – | – | did elevate serum biomarkers of hepatotoxicity | did elevate serum biomarkers of hepatotoxicity | up to 130 fold | up to 60 fold
